How the values were obtained:
Mouse TMEM16A = molecular target: T1, Mouse TMEM16A (Mus musculus, UniProt Q8BHY3); test: Stationary noise analysis of whole-cell TMEM16A currents; assay type: cell-based; conditions: +70 mV, 12.5 μM [Ca2+]i; for P o: control 0.78 ± 0.02
T1 construct: expressed in transfected cells; host or cells: HEK-293T
T1 sequence (Q8BHY3 1-960): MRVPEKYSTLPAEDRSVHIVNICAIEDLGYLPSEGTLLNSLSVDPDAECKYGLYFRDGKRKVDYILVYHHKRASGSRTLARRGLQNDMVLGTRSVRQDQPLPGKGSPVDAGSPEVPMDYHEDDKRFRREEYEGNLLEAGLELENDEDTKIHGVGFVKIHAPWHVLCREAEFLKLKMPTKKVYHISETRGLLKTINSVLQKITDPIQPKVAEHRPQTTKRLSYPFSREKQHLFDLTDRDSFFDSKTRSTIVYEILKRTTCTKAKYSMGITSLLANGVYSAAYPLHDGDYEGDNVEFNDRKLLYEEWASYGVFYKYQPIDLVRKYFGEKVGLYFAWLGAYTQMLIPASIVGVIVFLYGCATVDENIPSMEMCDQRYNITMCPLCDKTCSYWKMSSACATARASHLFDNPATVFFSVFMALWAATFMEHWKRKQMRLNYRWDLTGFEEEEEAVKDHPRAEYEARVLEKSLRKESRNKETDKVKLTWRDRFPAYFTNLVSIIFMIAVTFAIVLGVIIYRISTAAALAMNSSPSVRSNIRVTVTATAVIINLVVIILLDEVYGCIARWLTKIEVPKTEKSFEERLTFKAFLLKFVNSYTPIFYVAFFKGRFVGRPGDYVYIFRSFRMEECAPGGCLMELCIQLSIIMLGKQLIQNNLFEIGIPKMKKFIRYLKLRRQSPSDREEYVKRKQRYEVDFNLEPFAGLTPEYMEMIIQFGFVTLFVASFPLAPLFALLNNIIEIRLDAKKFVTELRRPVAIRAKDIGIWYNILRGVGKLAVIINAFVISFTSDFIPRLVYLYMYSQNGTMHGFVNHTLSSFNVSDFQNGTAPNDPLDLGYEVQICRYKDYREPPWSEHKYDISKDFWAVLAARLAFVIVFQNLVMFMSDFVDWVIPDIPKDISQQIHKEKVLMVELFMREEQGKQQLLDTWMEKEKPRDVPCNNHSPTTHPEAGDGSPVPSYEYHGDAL
Description: For non‐stationary noise analysis (Heinemann and Conti, 1992; Tammaro and Ashcroft, 2007), 80–200 identical pulses to a test potential of −70 mV (filtered at 10 kHz and sampled at 50 kHz) were applied, and the mean response, I, was calculated. The variance, σ ^2, was computed from the average squared difference of consecutive traces. Background variance and current at 0 mV were subtracted, and the variance–mean plot was fit by (4) σ^2=iI−I^2/N,
with the single channel current, i, and the number of channels, N, as free parameters.
TMEM16A channels are almost instantaneously activated by changes in V m in the presence of high [Ca^2+]i (12.5 μM) (e.g. Adomaviciene et al., 2013). The lack of slow time‐dependent changes in current amplitude under these conditions makes non‐stationary noise analysis unfeasible. Thus, for experiments carried out in high [Ca^2+]i, stationary noise analysis was performed instead. In the absence or presence of a fixed [A9C]ext, 10 tracts (each 600 ms in duration) of stationary currents measured at +70 mV were low‐pass filtered at 10 kHz and sampled at 50 kHz. For each tract of current, the variance and mean were calculated. The variance–mean plots obtained in the absence and presence of various [A9C]ext were fitted simultaneously with Equation (4).
Stationary noise analysis was used to determine if A9C block manifests as a change in i and/or P o of TMEM16A. Experiments were conducted in the presence of 12.5 μM [Ca^2+]i to enable examination of the effect of A9C block in the absence of A9C‐mediated activation. Mean current and variance were measured in tracts of stationary currents recorded in the absence or presence of different [A9C]ext.
With this assumption in mind, the variance–mean plots were fitted with Equation (4) (Figure 4C). The fits yielded a single value of i of 0.27 ± 0.04 pA (n = 5). P o values arising from the fits were 0.78 ± 0.02 for control (n = 5), 0.30 ± 0.08 at 100 μM [A9C]ext (n = 5) and 0.04 ± 0.01 at 1000 μM [A9C]ext (n = 5) (Figure 4D).

Xenopus laevis TMEM16A = conditions: +80 mV, ref Reyes et al. (2015); cited from earlier work

O=C(O)c1c2ccccc2cc2ccccc12 [A9C, Anthracene‐9‐carboxylic acid]
P o (Mouse TMEM16A; 100 μM [A9C]ext): 0.30 ± 0.08
P o (Mouse TMEM16A; 1000 μM [A9C]ext): 0.04 ± 0.01
single channel current i (Mouse TMEM16A; single value from simultaneous fit in absence and presence of [A9C]ext): 0.27 ± 0.04 pA
Ki (Xenopus laevis TMEM16A): ~90 µM

From paper PMC4728427, “Mechanism of allosteric activation of TMEM16A/ANO1 channels by a commonly used chloride channel blocker” (British Journal of Pharmacology, 2016)
